Values of other authors as cited in US7655753B2, “Conjugate” (PhotoBiotics Limited, priority 2001, dated 2010).

Tests used:
Barrett's mucosal cancer = details: clinical PDT
[1] = tested on: Basal cell cancer of skin; details: clinical PDT, topical administration
[2] = tested on: Barrett's oesophagus cancer; details: clinical PDT, systemic administration
Oral cancer = details: clinical PDT, over 5-53 months
[3] = tested on: Chest wall recurrence in breast cancer; details: clinical PDT
Bladder cancer = details: clinical PDT

In the case of porfimer sodium, the “persistence in the body” value (leading to skin photosensitivity) is listed as “weeks”, the “conversion to normal epithelium” value (Barrett's mucosal cancer) is listed as 75% conversion to and the tumour outcome (Barrett's mucosal cancer) is listed as “tumours eliminated”.
For Oc1cccc(-c2c3nc(c(-c4cccc(O)c4)c4ccc([nH]4)c(-c4cccc(O)c4)c4nc(c(-c5cccc(O)c5)c5ccc2[nH]5)CC4)C=C3)c1 [Foscan, meta-tetrahydroxyphenyl chlorin], the “skin photosensitivity (duration)” value (in vivo) is listed as “about 2 weeks”.
In the case of NCC(=O)CCC(=O)O [ALA, 5-aminolaevulanic acid], the complete response [1] is given as 90% complete response and the High-grade dysplasia outcome [2] is given as “eradicated in all patients”.
For Dihematoporphyrin ether, the complete response (Oral cancer) is given as 87% complete response, the complete response [3] is given as 20% complete response, and the partial response [3] is given as 45% partial response.
In the case of Hematoporphyrin derivative, the “alive after 5 years” value (Bladder cancer) is listed as 30% alive after 5 years and the complete response (Bladder cancer) is listed as 74% complete response,.
